From paper PMC11944513, “Investigation on Human Carbonic Anhydrase IX and XII Inhibitory Activity and A549 Antiproliferative Activity of a New Class of Coumarinamides” (Pharmaceuticals, 2025)

Experiments:
[1] = test system: normal bronchial epithelial cells (BEAS-2B); assay: cell viability (MTT assay), BEAS-2B; type: cell-based, human; details: for IC50: Homo sapiens, BEAS-2B, 48 h exposure, nonlinear regression, predictive estimates
Method: Human bronchial epithelial (BEAS-2B; CRL-3588) and human lung carcinoma (A549; CCL-185) cell lines were obtained from ATCC®. BEAS and A549 cells were maintained in complete RPMI 1640 (Merck, Darmstadt, Germany) at 37 °C and 5% CO2. The medium was supplemented with 10% heat-inactivated fetal bovine serum (FBS), 1% penicillin/streptomycin and 1% sodium pyruvate.
(§1) Cells were seeded at different densities according to the different experimental techniques performed (MTT assay and cell cycle analysis) and left to adhere for 24 h. Next, the medium was removed, and cells were treated with tested compounds, dissolved in dimethyl sulfoxide (DMSO) to achieve concentrations ranging from 0 µM (untreated control = CTRL) to 150 µM. The final DMSO concentration was kept below 0.3%. Cell viability was evaluated at up to 72 h post-treatment. Images were acquired 48 h after treatments by means of a light phase-contrast microscope equipped with a camera (Leica). Images were acquired and analyzed by the Leica Application Suite LAS EZ version 3.4 (Leica, Wetzlar, Germany).
(§2) BEAS and A549 cells were seeded in 96-well culture-treated plates (Falcon®, Corning Incorporated, Brooklyn, NY, USA) at a density of 0.5 × 10^4 cells/well. Untreated cells were set as the experimental control, representing 100% of cell viability. Exposure times varied from 24 up to 72 h. At the established time points (24, 48 and 72 h), the exposure medium was replaced with fresh medium containing 0.5 mg/mL 3-(4,5-dimethylthiazol-2-yl)-2,5-diphenyltetrazolium bromide (MTT) (Merck, Darmstadt, Germany) and processed as previously reported. The optical density in each well was measured at a wavelength of 540 nm using a spectrophotometer (Thermo Fisher Scientific, Waltham, MA, USA). Each experiment was performed in triplicate per experimental conditions (n = 3).

[2] = test system: bronchial adenocarcinoma cells (A549); assay: cell viability (MTT assay), A549; type: cell-based, human; details: for IC50: Homo sapiens, A549, 48 h exposure, nonlinear regression, predictive estimates
Method: The medium was supplemented with 10% heat-inactivated fetal bovine serum (FBS), 1% penicillin/streptomycin and 1% sodium pyruvate.
as §1, with “Next, the medium was removed, and cells were treated with tested compounds, dissolved in dimethyl sulfoxide (DMSO) to achieve concentrations ranging from 0 µM (untreated control = CTRL) to 150 µM.” left out
as §2

A549 cells [3] = assay: cytotoxicity assay (LDH test); type: cell-based, human; details: 24 h; for cytotoxicity occurrence (LDH release): A549, 0–150 µM; for LDH released, fold increase respective to untreated cells: A549, 150 µM
Method: as §1
To assess cytotoxicity in A549 cells after their treatment with the tested compounds, the amount of lactate dehydrogenase released into the culture medium was quantified using the CytoTox 96 non-radioactive cytotoxicity assay (Promega, Madison, WI, USA) according to the manufacturer’s instructions. Cell supernatants were collected from the same cultures processed for the MTT assay after 24 h of treatment and the optical density values obtained were normalized to those measured from the MTT assay.

A549 cells [4] = assay: cell cycle analysis (PI flow cytometry); type: cell-based, human; details: A549, 0–150 µM, 48 h; S phase cells increased vs untreated control
Method: as §1
[…] At each time point, cells were detached using StemPro™ Accutase™, pelleted by centrifugation, and fixed overnight at 4 °C in 70% v/v cold ethanol. After fixation, cells were processed as described elsewhere. The PI fluorescence was detected by a flow cytometer equipped with a 488 nm laser (CytoFlex flow cytometer, Beckman Coulter, CA, USA) in the FL-3 channel. A minimum of 10,000 events/sample were acquired and analyzed with the CytExpert Software, version 2.3 (Beckman Coulter, CA, USA), and the percentages of cells in the G1, S, or G2 phase of the cell cycle were calculated using the ModFit LT™ Software, version 5.0 (Verity Software House, Topsham, ME, USA).

h-CA I = h-CA I (Homo sapiens, UniProt P00915); assay: stopped-flow CO2 hydrase assay, h-CA I
Chain of h-CA I (P00915 whole entry): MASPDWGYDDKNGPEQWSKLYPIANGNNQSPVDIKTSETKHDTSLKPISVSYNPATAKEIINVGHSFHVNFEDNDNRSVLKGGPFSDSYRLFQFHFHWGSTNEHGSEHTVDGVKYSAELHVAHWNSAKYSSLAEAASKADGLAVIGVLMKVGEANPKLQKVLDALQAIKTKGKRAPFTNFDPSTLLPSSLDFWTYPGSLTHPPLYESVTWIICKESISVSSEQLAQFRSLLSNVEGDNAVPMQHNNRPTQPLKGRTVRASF

h-CA II = h-CA II (Homo sapiens, UniProt P00918); assay: stopped-flow CO2 hydrase assay, h-CA II
h-CA IX = h-CA IX (Homo sapiens, UniProt Q16790); assay: stopped-flow CO2 hydrase assay, h-CA IX; details: for selectivity on h-CA IX over h-CA XII (in words): comparison of Ki values
h-CA XII = h-CA XII (Homo sapiens, UniProt O43570); assay: stopped-flow CO2 hydrase assay, h-CA XII
Chain of h-CA XII (O43570 25-354): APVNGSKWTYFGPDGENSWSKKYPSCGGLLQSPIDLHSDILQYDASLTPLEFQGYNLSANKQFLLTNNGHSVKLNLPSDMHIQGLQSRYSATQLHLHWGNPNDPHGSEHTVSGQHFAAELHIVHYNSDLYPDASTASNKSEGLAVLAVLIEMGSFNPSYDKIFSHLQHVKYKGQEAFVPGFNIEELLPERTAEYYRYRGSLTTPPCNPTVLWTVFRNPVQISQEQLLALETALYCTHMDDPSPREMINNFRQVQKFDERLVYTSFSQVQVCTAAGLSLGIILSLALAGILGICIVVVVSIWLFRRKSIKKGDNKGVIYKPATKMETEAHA

Row | Compound | IC50 [1] [µM] | SI (selectivity index, IC50 BEAS/IC50 A549 ratio) ([2]; 48 h) | IC50 [2] [µM] | cytotoxicity occurrence (LDH release) (A549 cells [3]) | arrest of cell cycle progression (A549 cells [4]) | Ki (h-CA I) [µM] | Ki (h-CA II) [µM] | Ki (h-CA IX) [µM] | Ki (h-CA XII) [µM] | cell viability of BEAS cells ([1]; 1 µM, 48 h) | cell viability of A549 cells ([2]; 1 µM, 48 h) | selectivity on h-CA IX over h-CA XII (in words) (h-CA IX) | LDH released, fold increase respective to untreated cells (A549 cells [3]) [fold] | selectivity on h-CA XII over h-CA IX (h-CA XII; ratio of Ki values) [fold]
1 | Cc1ccc(N2CCN(C(=O)c3cc4ccc(O)cc4oc3=O)CC2)cc1C [Compound 38, 3-(4-(3,4-Dimethylphenyl)piperazine-1-Carbonyl)-7-Hydroxy-2H-Chromen-2-One] | 187.4 ± 1.27 | 3.747 | 50 ± 1.28 | None of the compounds administered displayed cytotoxicity | able to arrest cells at the G1/S checkpoint | > 100 | > 100 | 70.3 | 9.2 |  |  |  |  | 
2 | Cc1ccccc1CNC(=O)c1cc2ccc(O)cc2oc1=O [Compound 5, 7-Hydroxy-N-(2-Methylbenzyl)-2-Oxo-2H-Chromene-3-Carboxamide] | 181.2 ± 1.2 | 0.730 | 248.2 ± 1.57 |  |  | > 100 | > 100 | 25.4 | 35.5 |  |  |  |  | 
3 | COc1cccc2c1C(=O)c1c(O)c3c(c(O)c1C2=O)C[C@@](O)(C(=O)CO)C[C@@H]3O[C@H]1C[C@H](N)[C@H](O)[C@H](C)O1 [doxorubicin, reference compound] |  |  |  |  |  |  |  |  |  | dramatically decreased | dramatically decreased |  |  | 
4 | Cc1cccc(CNC(=O)c2cc3ccc(O)cc3oc2=O)c1 [Compound 6, 7-Hydroxy-N-(3-Methylbenzyl)-2-Oxo-2H-Chromene-3-Carboxamide] | 117.9 ± 1.08 | 1.309 | 90 ± 1.07 |  |  | > 100 | > 100 | 82.5 | 9.3 |  |  |  |  | 
5 | O=C(NCc1ccc(Cl)c(Cl)c1)c1cc2ccc(O)cc2oc1=O [Compound 23, N-(3,4-Dichlorobenzyl)-7-Hydroxy-2-Oxo-2H-Chromene-3-Carboxamide] | 73.4 ± 1.1 |  | 39.5 ± 1.06 | None of the compounds administered displayed cytotoxicity | able to arrest cells at the G1/S checkpoint | > 100 | > 100 | 46.2 | 21 |  |  |  |  | 
6 | O=C(NCCc1ccccc1Cl)c1cc2ccc(O)cc2oc1=O [Compound 29, N-(2-Chlorophenethyl)-7-Hydroxy-2-Oxo-2H-Chromene-3-Carboxamide] | 77.5 ± 1.08 | 1.386 | 55.9 ± 1.12 |  |  | > 100 | > 100 | 5.5 | 43.1 |  |  | good selectivity against h-CA IX over h-CA XII |  | 
7 | COc1ccc(CNC(=O)c2cc3ccc(O)cc3oc2=O)cc1 [Compound 9, 7-Hydroxy-N-(4-Methoxylbenzyl)-2-Oxo-2H-Chromene-3-Carboxamide] | 116 ± 1.22 |  | 68.2 ± 1.11 |  |  | > 100 | > 100 | 53.8 | 9.1 |  |  |  | ~3 | 
8 | O=C(NCc1ccc(Cl)cc1Cl)c1cc2ccc(O)cc2oc1=O [Compound 22, N-(2,4-Dichlorobenzyl)-7-Hydroxy-2-Oxo-2H-Chromene-3-Carboxamide] | 95.8 ± 1.07 | 1.150 | 83.3 ± 1.08 |  |  | > 100 | > 100 | 22 | 84.1 |  |  |  |  | 
9 | COc1ccc(N2CCN(C(=O)c3cc4ccc(O)cc4oc3=O)CC2)cc1 [Compound 44, 7-Hydroxy-3-(4-(4-Methoxyphenyl)piperazine-1-Carbonyl)-2H-Chromen-2-One] | 203.5 ± 1.19 | 1.888 | 108 ± 1.28 |  |  | > 100 | > 100 | 32.8 | 22.5 |  |  |  |  | 
10 | O=C(c1cc2ccc(O)cc2oc1=O)N1CCN(c2ccc(C(F)(F)F)cc2)CC1 [Compound 45, 3-(4-(4-Trifluoromethylphenyl)piperazine-1-Carbonyl)-7-Hydroxy-2H-Chromen-2-One] | 53.9 ± 1.07 | 2.096 | 25.7 ± 1.14 |  |  | > 100 | > 100 | 22.6 | 8.4 |  |  |  |  | 
11 | Cc1ccc(CNC(=O)c2cc3ccc(O)cc3oc2=O)cc1 [Compound 7, 7-Hydroxy-N-(4-Methylbenzyl)-2-Oxo-2H-Chromene-3-Carboxamide] | 157.8 ± 1.07 |  | 85.8 ± 1.13 |  |  | > 100 | > 100 | 33.7 | 8.8 |  |  |  | ~2 | 
12 | O=C(NCc1ccccc1Cl)c1cc2ccc(O)cc2oc1=O [Compound 19, N-(2-Chlorobenzyl)-7-Hydroxy-2-Oxo-2H-Chromene-3-Carboxamide] | 40.7 ± 1.1 | 1.271 | 32 ± 1.22 |  |  | > 100 | > 100 | 19.3 | 64.9 |  |  | about three times more active on h-CA IX |  | 
13 | O=C(NCCc1cccc(Cl)c1)c1cc2ccc(O)cc2oc1=O [Compound 30, N-(3-Chlorophenethyl)-7-Hydroxy-2-Oxo-2H-Chromene-3-Carboxamide] | 87.4 ± 1.06 | 1.465 | 59.7 ± 1.07 |  |  | > 100 | > 100 | 7.5 | 55.8 |  |  | good selectivity against h-CA IX over h-CA XII |  | 
14 | O=C(c1cc2ccc(O)cc2oc1=O)N1CCN(c2ccccc2)CC1 [Compound 32, 7-Hydroxy-3-(4-Phenylpiperazine-1-Carbonyl)-2H-Chromen-2-One] | 399.7 ± 1.68 | 2.547 | 156.9 ± 1.12 |  |  | > 100 | > 100 | 49.3 | 9.1 |  |  |  |  | ~5
